Patent publication US20030170229A1, “Vaccine” (SmithKline Beecham Biologicals s.a., priority 1999, published 2003)
Entries after “also recorded” stand apart in the source; their conditions may differ.

Tests used:
P14 peptide = assay: Anti-peptide ELISA on sera of mice immunised with P14 conjugates; format: in vivo, BalbC mice; settings: mice vaccinated with P14 conjugate
Method: (§1) The anti-peptide and anti-carrier immune responses were investigated using an ELISA technique outlined below. Microtiterplates (Nunc) are coated with the specific antigen in PBS (4° overnight) with either: Streptavidin at 2 μg/ml (followed by incubation with biotinylated peptide (1 μM) for 1 hour at 37° C.), Wash 3× PBS-Tween 20 0.1%. Saturate plates with PBS-BSA 1%-Tween 20 0.1% (Sat buffer) for 1 hr at 37°. Add 1° antibody=sera in two-step dilution (in Sat buffer), incubate 1 hr 30 minutes at 37°. Wash 3×. Add 2° anti-mouse Ig (or anti-mouse isotype specific monoclonal antibody) coupled to HRP. Incubate 1 hr at 37°. Wash 5×. Reveal with TMB (BioRad) for 10 minutes at room temperature in the dark. Block reaction with 0.4N H2SO4.
The conjugates comprising the mimotope P14 (25 μg protein/dose), described in example 1, were administered into groups of 10 BalbC mice, adjuvanted with and oil in water emulsion containing QS21 and 3D-MPL described in WO 95/17210. Boosting was be performed on days 14, 24 and 72, sera was harvested 14 days after each immunisation. The immune responses anti-peptide and anti-plate bound IgE was followed using ELISA methods described in Example 1. The antiserum was then tested for anaphylactogenicity and functional activity in the inhibition of histamine release from human allergic basophils (methods as described in example 1).

human IgE = assay: IgE plate bound ELISA: anti-human IgE reactivity in serum of immunised mice; format: in vivo, mouse
allergic human basophils = assay: Human basophil assay, blocking assay (inhibition of allergen-triggered histamine release); format: cell-based; settings: mouse antiserum; allergic human basophils triggered with allergen
Source text: Samples of cells were lysed by 2× freeze/thawing to assay total histamine contained in the cells.
The degree of inhibition of histamine release can be calculated using the formula: […]
(histamine release from antigen stimulated cells*)
Values corrected for spontaneous release.

Peptide P11 = assay: Anti-P11 ELISA on sera of mice immunised with P11-BSA; format: in vivo; settings: P11 coupled to BSA, 25 μg in SBAS2 IM, 8 female BALB/c mice, days 0, 14, 28
Method: FIG. 5, Antibody response anti-P11. Peptide P11 is coated at 1 μg/ml in carbonate buffer at +4° C. overnight. After saturation of plates, two-fold serial dilution of sera are added and incubated for 1 h at 37° C. Bound IgG is detected with a biotinylated anti-mouse Ab followed by streptavidin-POD and TMB substrate. Time points measured A. days 14 post vaccination 1, and day 14 post v2; B, Day 14 post v3.
as §1
25 μg of conjugate formulated in SBAS2 was injected IM into 8 female BALB/c mice at days 0, 14 and 28. […] Anti-peptide and anti-IgE antibodies raised by vaccination were measured by ELISA, as described in Example 1.

Row | Sequence | induction of anti-P14 immune response (P14 peptide) | induction of anti-IgE immune response (human IgE; mice vaccinated with P14 conjugate) | inhibition of histamine release by antiserum/antibodies raised by vaccination (allergic human basophils) | anti-IgE response (human IgE; as expressed in mAb005 equivalents, all mice, after a third injection of P11 coupled to BSA) | IgG anti-P11 response (Peptide P11)
1 | APEWPGSRDKRTC (Human peptide sequence) [Peptide P14] | capable of raising high titres | capable of raising high titres | potent in the inhibition of histamine release; also recorded: inhibited histamine release |  | 
2 | CRASGKPVNHSTRKEEKQRNGLL (Human peptide sequence) [Peptide P11] |  |  |  | 28 to 244 µg/mL | detected already after one injection, but increased further after the second and third injection
